# Source: patent US20250025454A1 (priority 2021, published 2025)
# Several values for one entry are separate records, joined by “and”; a condition that tells them apart may be missing. Equal entries are not always repeated. Entries after “also recorded” stand apart in the source; their conditions may differ. Where two headings read alike, the source gives them in different places.
# Assays:
# [1] = tested on: SARS-CoV-2/WA1; format: cell-based
# [2] = tested on: SARS-CoV-2; conditions: 35 compounds tested
# [3] = female, 129S1, mouse, in vivo, po
# [4] = female, 129/S, mouse, in vivo
# [5] = male, Sprague-Dawley, rat, in vivo
# [6] = tested on: SARS-CoV-2; conditions: Scripps ReFrame database; cited from earlier work
# [7] = Scripps ReFrame database; cited from earlier work
# [8] = tested on: SARS-CoV-2; conditions: Scripps ReFrame database; cited from earlier work; remark: listed apart in the source
# [9] = in vivo; conditions: female, 129S1, mouse; for Tmax: range
# [10] = in vivo; conditions: female, 129/S, mouse
# [11] = in vivo; conditions: male, Sprague-Dawley, rat, po; for AUC(0-t): AUClast
# [12] = single oral dose, comparable for all doses, cited from earlier work
# [13] = cited from earlier work
# [14] = in vivo; cited from earlier work
# [15] = Pharmacokinetics (plasma and lung tissue) after single and 5-day repeat oral dosing in female 129S1 mice; conditions: for adverse reactions / tolerability: female 129S1 mice, PO 50 and 250 mg/kg up to 5 days; for Kp: Lung/Plasma AUC ratio; for AUC(0-t): AUClast ± SE; for MRT last at 5 day / MRT last: MRTlast; for Kp at 24 h: L/P Ratio, non-infected mice, 250 mg/kg QD oral
# [16] = 1000 mg/kg, Plasma concentration
# [17] = female, 129S1, mouse, in vivo, 250 mg/kg
# [18] = female, 129S1, mouse, in vivo, po, 50 mg/kg
# [19] = female, 129S1, mouse, in vivo, po, 50 mg/kg, plasma, 50 mg/kg PO multiple, 5-day, dose
# [20] = female, 129S1, mouse, in vivo, po, 50 mg/kg, plasma, 50 mg/kg PO single dose
# [21] = female, 129S1, mouse, in vivo, po, 250 mg/kg
# [22] = female, 129S1, mouse, in vivo, po, 250 mg/kg, plasma, 250 mg/kg PO multiple, 5-day, dose
# [23] = female, 129S1, mouse, in vivo, po, 250 mg/kg, plasma, 250 mg/kg PO single dose
# [24] = female, 129S1, mouse, in vivo, po, 250 mg/kg, lung, 250 mg/kg PO multiple, 5-day, dose
smiles,measurement,setting,value
"Cc1c(-c2ccc(O)cc2)n(Cc2ccc(OCCN3CCCCC3)cc2)c2ccc(O)cc12 [Pipendoxifene, 2-(4-hydroxyphenyl)-3-methyl-1-[[4-(2-piperidin-1-ylethoxy)phenyl]methyl]indol-5-ol]",IC50 expressed as mass concentration,[1],0.328 µg/mL
same,activity in the HeLa-ACE2 cell-based SARS-CoV-2 assay,[2],demonstrated activity
same,lung concentrations achieved,[3],greater than 30 ug/g
same,Plasma concentration,"[3]; 250 mg/kg, 24 h",34 ng/mL
same,C24h plasma concentration,[4]; 125 mg/kg,290 ng/mL
same,C24h plasma concentration,[4]; 250 mg/kg,194 ng/mL
same,Lung concentration,"[4]; po, 250 mg/kg",784 ng/mL
same,Plasma concentration,"[4]; po, 250 mg/kg",194 ng/mL
same,increase of plasma AUClast,[5],about 2 fold
same,AUClast,"[5]; po, 250 mg/kg",3515 ng·h/mL
same,Tmax,"[5]; po, 250 mg/kg",5.33 h
same,Tmax,"[5]; po, 500 mg/kg",6.67 h
same,Tmax,"[5]; po, 750 mg/kg",6.67 h
same,activity in HTS,[6],INACTIVE
same,activity in HTS,[7],INACTIVE
same,activity in HTS,[8],INACTIVE
same,Kp,[9],~50
same,Tmax,"[9]; 250 mg/kg, Mean Tmax (plasma)",2 to 6 h
same,Tmax,"[9]; 250 mg/kg, Tmax (lung)",4 to 8 h
same,Cmax at 5 day,"[9]; po, 50 mg/kg",178 ± 8 ng/mL
same,MRT last,"[9]; po, 50 mg/kg",6.79 h
same,MRT last at 5 day,"[9]; po, 50 mg/kg",7.35 h
same,Tmax at 5 day,"[9]; po, 50 mg/kg",5 h
same,Cmax at 5 day,"[9]; po, 250 mg/kg",1050 ± 230 ng/mL
same,MRT last,"[9]; po, 250 mg/kg",8.27 h
same,Tmax at 5 day,"[9]; po, 250 mg/kg",6 h
same,Kp,[10]; C24 h lung concentrations relative to plasma concentrations (higher),3 to 4
same,Kp,"[10]; po, 250 mg/kg, L/P Ratio",4.04
same,Kp,"[10]; po, L/P Ratio",4.03
same,AUC(0-t),[11]; 250 mg/kg,4120 ng·h/mL
same,Cmax,[11]; 250 mg/kg,336 ng/mL
same,Tmax,"[11]; 250 mg/kg, tmax",6 h
same,Cmax,[11]; 500 mg/kg,462 ng/mL
same,Tmax,"[11]; 500 mg/kg, tmax",6 h
same,AUC(0-t),[11]; 750 mg/kg,5260 ng·h/mL
same,Tmax,"[11]; 750 mg/kg, tmax",6 h
same,AUC(0-t),[11]; 1000 mg/kg,5700 ng·h/mL
same,AUC(0-inf),"[11]; 1000 mg/kg, AUC∞",7730 ng·h/mL
same,Cmax,[11]; 1000 mg/kg,452 ± 75 ng/mL
same,concentration at 0.25 h,[11]; [16],5.05 ng/mL
same,concentration at 0.25 hr,[11]; [16],5.05 ng/mL
same,concentration at 2 h,[11]; [16],226 ng/mL
same,concentration at 2 hr,[11]; [16],226 ng/mL
same,concentration at 4 h,[11]; [16],335 ng/mL
same,concentration at 4 hr,[11]; [16],335 ng/mL
same,concentration at 6 h,[11]; [16],489 ng/mL
same,concentration at 8 h,[11]; [16],295 ng/mL
same,concentration at 8 hr,[11]; [16],295 ng/mL
same,Tmax,"[11]; 1000 mg/kg, tmax",6 h
same,Tmax,"[11]; Mean Tmax (plasma), range",5.3 to 6 h
same,t1/2,[12],30 ± 16 h
same,t1/2,[12]; listed as pipendoxifene,30 h
same,mean t1/2,[13]; 150 mg dose,15.8 h
same,mean t1/2,[13]; 200 mg dose,26 h
same,Clearance,[13]; in vivo,4 to 10.5 h⁻¹ kg⁻¹
same,time to steady-state plasma levels,[13]; in vivo,4 to 5 days
same,primary metabolite,[14],indole glucuronide
same,Lung Cmax over SARS-CoV-2 IC50,[15]; 50 mg/kg,17 fold
same,Mean plasma concentration,"[15]; 50 mg/kg PO single dose, 1.0 hr",89.1 ng/mL
same,Lung Cmax over SARS-CoV-2 IC50,[15]; 250 mg/kg,121 fold
same,Mean plasma concentration,"[15]; 250 mg/kg PO single dose, 0.5 hr",88.8 ng/mL
same,adverse reactions / tolerability,[15],no adverse events
same,adverse reactions / tolerability,[15]; listed as MDL-001,well tolerated with no adverse clinical signs; also recorded: No adverse reactions were observed
same,adverse reactions / tolerability,[15]; listed as pipendoxifene,No adverse reactions were observed
same,concentration at 8 hr,"[15]; female, 129S1, mouse, in vivo, 50 mg/kg",7840 ng/g
same,Kp,"[15]; female, 129S1, mouse, in vivo, 50 mg/kg, Day 1, 50 mg/kg",65
same,Kp,"[15]; female, 129S1, mouse, in vivo, 50 mg/kg, Day 5, 50 mg/kg",56
same,concentration at 8 h,[15]; [17],575 ± 194 ng/mL
same,concentration at 8 hr,[15]; [17],121 ng/mL
same,half-life,[15]; [17],2.36 to 3.96 h
same,Kp,"[15]; female, 129S1, mouse, in vivo, 250 mg/kg, Day 1, 250 mg/kg",36
same,Kp,"[15]; female, 129S1, mouse, in vivo, 250 mg/kg, Day 5, 250 mg/kg",44
same,Cmax,[15]; [18],179 ng/mL and 8310 ng/g
same,Cmax at 5 day,[15]; [18],5610 ± 925 ng/g
same,half-life,[15]; [18],2.36 h
same,half-life at 5 day,[15]; [18],2.58 h
same,AUC(0-t),[15]; [19],1390 ± 55 ng·h/mL
same,AUC(0-t),[15]; [20],1600 ± 115 ng·h/mL
same,AUC(0-inf),[15]; [19],1400 ng·h/mL
same,AUC(0-inf),[15]; [20],1600 ng·h/mL
same,MRT last at 5 day,[15]; [19],7.1 h
same,MRT last,[15]; [20],6.95 h
same,Tmax at 5 day,"[15]; female, 129S1, mouse, in vivo, po, 50 mg/kg, lung, 50 mg/kg PO multiple, 5-day, dose",8 h
same,Tmax,"[15]; female, 129S1, mouse, in vivo, po, 50 mg/kg, lung, 50 mg/kg PO single dose",4 h
same,Tmax,[15]; [20],2 h
same,Cmax,[15]; [21],1020 ng/mL and 24700 ng/g
same,Cmax at 5 day,[15]; [21],39000 ± 8840 ng/g
same,half-life,[15]; [21],3.96 h
same,half-life at 5 day,[15]; [21],2.52 h
same,AUC(0-t),[15]; [22],11600 ± 1190 ng·h/mL
same,AUC(0-inf),[15]; [22],11700 ng·h/mL
same,AUC(0-inf),[15]; [23],10500 ng·h/mL
same,Kp at 24 h,"[15]; female, 129S1, mouse, in vivo, po, 250 mg/kg, Day 1",114
same,Kp at 24 h,"[15]; female, 129S1, mouse, in vivo, po, 250 mg/kg, Day 5",177
same,MRT last at 5 day,[15]; [24],7.22 h
same,MRT last,[15]; [23],8.86 h
same,Tmax at 5 day,[15]; [24],4 h
same,Tmax,"[15]; female, 129S1, mouse, in vivo, po, 250 mg/kg, lung, 250 mg/kg PO single dose",8 h
same,concentration at 8 h,"[15]; female, 129S1, mouse, lung, oral, 50 mg/kg, Mean lung tissue concentration, 50 mg/kg PO multiple, 5-day, dose, 8.0 hr",5610 ± 1600 ng/g
same,concentration at 1 hr,"[15]; female, 129S1, mouse, plasma, oral, 50 mg/kg, Mean plasma concentration, 50 mg/kg PO single dose, 1.0 hr",89.1 ± 71.2 ng/mL
same,concentration at 4 h,"[15]; female, 129S1, mouse, plasma, oral, 50 mg/kg, Mean plasma concentration, 50 mg/kg PO single dose, 4.0 hr",107 ± 23 ng/mL
same,concentration at 2 hr,"[15]; female, 129S1, mouse, plasma, oral, 50 mg/kg, Plasma Conc., individual mouse, 50 mg/kg PO multiple, 5-day, dose, 2.0 hr",113 ng/mL
same,concentration at 6 hr,"[15]; female, 129S1, mouse, plasma, oral, 50 mg/kg, Plasma Conc., individual mouse, 50 mg/kg PO multiple, 5-day, dose, 6.0 hr",163 ng/mL
same,concentration at 8 hr,"[15]; female, 129S1, mouse, plasma, oral, 50 mg/kg, Plasma Conc., individual mouse, 50 mg/kg PO single dose, 8.0 hr",113 ng/mL
same,concentration at 0.5 h,"[15]; female, 129S1, mouse, plasma, oral, 250 mg/kg, Mean plasma concentration, 250 mg/kg PO single dose, 0.5 hr",88.8 ± 14.1 ng/mL
same,concentration at 4 hr,"[15]; female, 129S1, mouse, plasma, oral, 250 mg/kg, Plasma Conc., individual mouse, 250 mg/kg PO multiple, 5-day, dose, 4.0 hr",497 ng/mL
